Test [1] concerns HEK293 cells overexpressing APOL1 G2. Kind of test: APOL1 G2 HEK293 cell rescue assay (reversal of cell death caused by overexpression of APOL1). Format: cell-based. Conditions: geometric mean of at least 2 assay runs, † = single assay run. In outline: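 EC50 is the half-maximal effective concentration for reversing cell death driven by APOL1 G2 overexpression in HEK293 cells. Reported as geometric mean of at least 2 runs on separate days, each run averaging duplicate wells per plate; some values from a single run.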

For test [2], the system named is Trypanosoma brucei Lister 427 VSG221 with APOL1 G2 recombinant protein. Description: APOL1 G2 trypanosome cell rescue assay (Example B5). Format: cell-based. As to conditions: geometric mean of at least 2 assay runs, † = single assay run. In outline: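 Mature APOL1 (residues 28-398, E. coli-expressed, His-tag removed by TEV) was added as a 2 μg/mL solution to T. brucei Lister 427 VSG221 in modified HMI-9 medium at 250 cells/well, with duplicate 11-point 2-fold compound dilutions (0.4% DMSO). After 20 h at 37° C, 5% CO2, viability was read by CellTiter-Glo luminescence.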

[3] abbreviates: Homo sapiens, HEK293, HEK293 overexpressing APOL1 G2.
Setting [4] is: Trypanosoma brucei, 20 h, read-out: APOL1 G2 Trypanosome Rescue EC50, Trypanosoma brucei Lister 427 VSG221 with APOL1 G2 recombinant protein, 20 hours, CellTiter-Glo.

Like-named read-outs stand apart in the source and are kept apart here.

In the case of `CS(=O)(=O)c1ccc(OCCN2CCC3(CC2)C(=O)Nc2ccc(Cl)cc23)cn1` [Compound 64, 5-chloro-1′-{2-[(6-methanesulfonylpyridin-3-yl)oxy]ethyl}-1,2-dihydrospiro[indole-3,4′-piperidin]-2-one], the EC50 in test [1] (setting [3]) is 163 nM; in test [2] (setting [4]), 167 nM.

Turning to `C[C@]1(O)C[C@@H](n2c(=O)[nH]c3cc(OCCN4CCC5(CC4)C(=O)Nc4ccc(Cl)cc45)cc(C(F)(F)F)c32)C1` [Compound 468, 5-chloro-1′-[2-({2-oxo-1-[(cis)-3-hydroxy-3-methylcyclobutyl]-7-(trifluoromethyl)-2,3-dihydro-1H-1,3-benzodiazol-5-yl}oxy)ethyl]-1,2-dihydrospiro[indole-3,4′-piperidin]-2-one], the EC50 turned out to be 6.45 nM in test [1] (setting [3]) and 2.4 nM in test [2] (setting [4]).

As for `C[C@]1(O)C[C@@H](n2c(=O)ccc3cc(OCCN4CCC5(CC4)C(=O)Nc4ccc(C(F)F)cc45)cnc32)C1` [Compound 324, 5-(difluoromethyl)-1′-[2-({7-oxo-8-[(cis)-3-hydroxy-3-methylcyclobutyl]-7,8-dihydro-1,8-naphthyridin-3-yl}oxy)ethyl]-1,2-dihydrospiro[indole-3,4′-piperidin]-2-one], the EC50 stood at 25.6 nM in test [1] (setting [3]) and 8.31 nM in test [2] (setting [4]).

Consider `CN(c1ccc(OCCN2CCC3(CC2)C(=O)Nc2ccc(Cl)cc23)cc1)S(C)(=O)=O` [Compound 76, N-[4-(2-{5-chloro-2-oxo-1,2-dihydrospiro[indole-3,4′-piperidin]-1′-yl}ethoxy)phenyl]-N-methylmethanesulfonamide], for which the EC50 in test [1] (setting [3]) was 47.7 nM; in test [2] (setting [4]), 35.5 nM.

As to `CC1(O)CC(CN2C(=O)CCc3cc(OCCN4CCC5(CC4)C(=O)Nc4ccc(Cl)cc45)cnc32)C1` (single isomer, unassigned) [Compound 322, 5-chloro-1′-{2-[(7-oxo-8-{[(trans) or (cis)-3-hydroxy-3-methylcyclobutyl]methyl}-5,6,7,8-tetrahydro-1,8-naphthyridin-3-yl)oxy]ethyl}-1,2-dihydrospiro[indole-3,4′-piperidin]-2-one], the EC50 in test [1] (HEK293 overexpressing APOL1 G2) was 18.5 nM; in test [2] (read-out: APOL1 G2 Trypanosome Rescue EC50, Trypanosoma brucei Lister 427 VSG221 with APOL1 G2 recombinant protein, 20 hours, CellTiter-Glo), 11.7 nM.

With `CC(=O)N1CCCc2cc(OCCN3CCC4(CC3)C(=O)Nc3ccc(Cl)cc34)ccc21` [Compound 56, 1′-{2-[(1-acetyl-1,2,3,4-tetrahydroquinolin-6-yl)oxy]ethyl}-5-chloro-1,2-dihydrospiro[indole-3,4′-piperidin]-2-one], the EC50 in test [1] (setting [3]) was determined as 105 nM; in test [2] (setting [4]), 119 nM.

As to `CC1(O)CC2(CN(c3ncc(OCCN4CCC5(CC4)C(=O)Nc4ccc(Cl)cc45)cn3)C2)C1` [Compound 459, 5-chloro-1′-{2-[(2-{6-hydroxy-6-methyl-2-azaspiro[3.3]heptan-2-yl}pyrimidin-5-yl)oxy]ethyl}-1,2-dihydrospiro[indole-3,4′-piperidin]-2-one], the concentration for a half-maximal effect (EC50) in test [1] (setting [3]) was determined as 29 nM; in test [2] (setting [4]), 49.8 nM.

With `C[C@]1(O)C[C@@H](n2c(=O)ccc3cc(OCCN4CCC5(CC4)C(=O)Nc4ccc(Cl)cc45)cnc32)C1` [Compound 323, 5-chloro-1′-[2-({7-oxo-8-[(cis)-3-hydroxy-3-methylcyclobutyl]-7,8-dihydro-1,8-naphthyridin-3-yl}oxy)ethyl]-1,2-dihydrospiro[indole-3,4′-piperidin]-2-one], the EC50 was 17.3 nM in test [1] (setting [3]) and 11.8 nM in test [2] (setting [4]).

`C[C@]1(O)C[C@@H](N2C(=O)Cc3cc(OCCN4CCC5(CC4)C(=O)Nc4ccc(Cl)cc45)cnc32)C1` [Compound 345, 5-chloro-1′-[2-({2-oxo-1-[(cis)-3-hydroxy-3-methylcyclobutyl]-1H,2H,3H-pyrrolo[2,3-b]pyridin-5-yl}oxy)ethyl]-1,2-dihydrospiro[indole-3,4′-piperidin]-2-one]: the EC50 turned out to be 36.4 nM in test [1] (setting [3]) and 80.2 nM in test [2] (setting [4]).

In the case of `CC(C)(O)c1ncc(OCCN2CCC3(CC2)C(=O)Nc2ccc(Cl)cc23)cc1C(F)(F)F` [Compound 371, 5-chloro-1′-(2-{[6-(2-hydroxypropan-2-yl)-5-(trifluoromethyl)pyridin-3-yl]oxy}ethyl)-1,2-dihydrospiro[indole-3,4′-piperidin]-2-one], the concentration giving a half-maximal response (EC50) in test [1] (setting [3]) was found to be 17.2 nM; in test [2] (setting [4]) it was 9.16 nM.

For the compound `C[C@]1(O)C[C@@H](N2C(=O)NCc3cc(OCCN4CCC5(CC4)C(=O)Nc4ccc(Cl)cc45)cnc32)C1` [Compound 356, 5-chloro-1′-[2-({2-oxo-1-[(cis)-3-hydroxy-3-methylcyclobutyl]-1H,2H,3H,4H-pyrido[2,3-d]pyrimidin-6-yl}oxy)ethyl]-1,2-dihydrospiro[indole-3,4′-piperidin]-2-one], the figures for the concentration for a half-maximal effect (EC50) in test [1] (setting [3]) and in test [2] (setting [4]) were 50.6 nM and 37.4 nM, respectively.

With `C[C@]1(O)C[C@@H](n2cc3cc(OCCN4CCC5(CC4)C(=O)Nc4ccc(C#N)cc45)cc(C(F)(F)F)c3n2)C1` [Compound 428, 2-oxo-1′-[2-({2-[(cis)-3-hydroxy-3-methylcyclobutyl]-7-(trifluoromethyl)-2H-indazol-5-yl}oxy)ethyl]-1,2-dihydrospiro[indole-3,4′-piperidine]-5-carbonitrile], the EC50 in test [1] (setting [3]) came out at 54.3 nM; in test [2] (setting [4]), 32.3 nM.

As to `O=C1Nc2ccc(Cl)cc2C12CCN(CCOc1cnc(C3(CO)CC3)nc1)CC2` [Compound 333, 5-chloro-1′-[2-({2-[1-(hydroxymethyl)cyclopropyl]pyrimidin-5-yl}oxy)ethyl]-1,2-dihydrospiro[indole-3,4′-piperidin]-2-one], the EC50 stood at 43 nM in test [1] (setting [3]) and 74 nM in test [2] (setting [4]).

On to `C[C@]1(O)C[C@@H](n2cnc3cc(OCCN4CCC5(CC4)C(=O)Nc4ccc(Cl)cc45)cc(C(F)(F)F)c32)C1` [Compound 352, 5-chloro-1′-[2-({1-[(cis)-3-hydroxy-3-methylcyclobutyl]-7-(trifluoromethyl)-1H-1,3-benzodiazol-5-yl}oxy)ethyl]-1,2-dihydrospiro[indole-3,4′-piperidin]-2-one], for which the EC50 was determined as 8.6 nM in test [1] (setting [3]) and 8.22 nM in test [2] (setting [4]).

For the compound `C[C@]1(O)C[C@@H](n2c(=O)[nH]c3cc(OCCN4CCC5(CC4)C(=O)Nc4ccc(C#N)cc45)cc(C(F)(F)F)c32)C1` [Compound 470, 2-oxo-1′-[2-({2-oxo-1-[(cis)-3-hydroxy-3-methylcyclobutyl]-7-(trifluoromethyl)-2,3-dihydro-1H-1,3-benzodiazol-5-yl}oxy)ethyl]-1,2-dihydrospiro[indole-3,4′-piperidine]-5-carbonitrile], the half-maximal effective concentration (EC50) in test [1] (setting [3]) was determined as 179 nM; in test [2] (setting [4]) it was 4.41 nM.

As to `O=C1Nc2ccc(Cl)cc2C12CCN(CCOc1ccc3nccnc3c1)CC2` [Compound 62, 5-chloro-1′-[2-(quinoxalin-6-yloxy)ethyl]-1,2-dihydrospiro[indole-3,4′-piperidin]-2-one], the EC50 was determined as 165 nM in test [1] (setting [3]) and 120 nM in test [2] (setting [4]).

Consider `O=C1Nc2ccc(Cl)cc2C12CCN(CCOc1ccc(S(=O)(=O)C3CC3)cc1)CC2` [Compound 43, 5-chloro-1′-{2-[4-(cyclopropanesulfonyl)phenoxy]ethyl}-1,2-dihydrospiro[indole-3,4′-piperidin]-2-one], for which the EC50 in test [1] (setting [3]) is 33.1 nM; in test [2] (setting [4]), 19.4 nM.

Take `CN1C(=O)CCc2cc(OCCN3CCC4(CC3)C(=O)Nc3ccc(Cl)cc34)cnc21` [Compound 78, 5-chloro-1′-{2-[(8-methyl-7-oxo-5,6,7,8-tetrahydro-1,8-naphthyridin-3-yl)oxy]ethyl}-1,2-dihydrospiro[indole-3,4′-piperidin]-2-one]: the results for the EC50 in test [1] (setting [3]) and in test [2] (setting [4]) were 41 nM and 32.6 nM, respectively.

As for `CN1C(=O)Cc2cc(OCCN3CCC4(CC3)C(=O)Nc3ccc(Cl)cc34)ccc21` [Compound 65, 5-chloro-1′-{2-[(1-methyl-2-oxo-2,3-dihydro-1H-indol-5-yl)oxy]ethyl}-1,2-dihydrospiro[indole-3,4′-piperidin]-2-one], the EC50 in test [1] (setting [3]) is 87.5 nM; in test [2] (setting [4]), 96.8 nM.

For `CC[C@]1(O)C[C@@H](N2C(=O)CCc3cc(OCCN4CCC5(CC4)C(=O)Nc4ccc(Cl)cc45)cnc32)C1` (single isomer, unassigned) [Compound 321, 5-chloro-1′-[2-({7-oxo-8-[(cis)-3-ethyl-3-hydroxycyclobutyl]-5,6,7,8-tetrahydro-1,8-naphthyridin-3-yl}oxy)ethyl]-1,2-dihydrospiro[indole-3,4′-piperidin]-2-one], the values for the 50% effective concentration (EC50) in test [1] (setting [3]) and in test [2] (setting [4]) were 24.1 nM and 14.3 nM, respectively.

`C[C@]1(O)C[C@@H](n2nnc3cc(OCCN4CCC5(CC4)C(=O)Nc4ccc(Cl)cc45)cnc32)C1` [Compound 440, 5-chloro-1′-[2-({3-[(cis)-3-hydroxy-3-methylcyclobutyl]-3H-[1,2,3]triazolo[4,5-b]pyridin-6-yl}oxy)ethyl]-1,2-dihydrospiro[indole-3,4′-piperidin]-2-one]: the EC50 in test [1] (setting [3]) was 54.4 nM; in test [2] (setting [4]) it was 70.5 nM.

`C[C@]1(O)C[C@@H](n2ccc3cc(OCCN4CCC5(CC4)C(=O)Nc4ccc(Cl)cc45)cnc32)C1` [Compound 349, 5-chloro-1′-[2-({1-[(cis)-3-hydroxy-3-methylcyclobutyl]-1H-pyrrolo[2,3-b]pyridin-5-yl}oxy)ethyl]-1,2-dihydrospiro[indole-3,4′-piperidin]-2-one]: the EC50 in test [1] (setting [3]) came out at 25.4 nM; in test [2] (setting [4]) it was 33.1 nM.

The values are drawn from US12344610B2, “APOL1 inhibitors and methods of use” (Maze Therapeutics, Inc., priority 2022, dated 2025).
